From patent publication US11857529B2, “Methods for treating melanoma” (Olatec Therageutics, Inc., priority 2018, dated 2024)

How the values were obtained:
G-CSF = assay: Plasma G-CSF in B16F10 tumor-bearing mice; assay type: in vivo; conditions: OLT1177 diet vs standard diet, day 15, FIG. 1C
Procedure: (§1) Cytokine measurements. Cytokines in supernatants and cell lysates were measured by specific ELISA according to the manufacturer's instructions (DuoSet, R&D Systems, Minneapolis, MN).
(§2) C57BL/6J male mice, 6-8 weeks old (The Jackson Laboratory), were fed ad libitum with either a standard diet or a diet containing OLT1177® (dapansutrile) at a dose of 7.5 g per Kg of food for one week before subcutaneous instillation of a mixture of Matrigel and B16F10 cells (2×10^5) on the hind quarter of the mice. The dosage was approximately […] based on feed concentrations of 7.5 g/kg and food consumption of 4 g/day. These diets were continued after tumor implantation. Mice were sacrificed following 15 days from the plug instillation. Tissue and plasma were assessed after 15-day post-inoculation.

[1] = tested on: PMN-MDSC (CD11b+Ly6G+Ly6Clo); assay: Flow cytometry of PMN-MDSC in tumor-bearing mice; assay type: in vivo
Source text: (§3) Flow cytometry analysis was used to assess the effect of NLRP3 inhibition on the activation and expansion of MDSCs, key mediators of tumor-associated immunosuppression. Bone marrow, spleen, and lymph node-derived cells were isolated and analyzed for the two main MDSCs subtypes: polymorphonuclear MDSCs (PMN-MDSC) expressing CD11b^+Ly6G^+Ly6C^lo and monocytic MDSCs (M-MDSC) expressing CD11b^+Ly6G^−Ly6C^hi. […] In the spleen, the level of PMN-MDSCs in tumor-bearing mice was increased compared to non-tumor-bearing mice (FIG. 4B). However, in mice fed the dapansutrile diet, we observed a restoration of the PMN-MDSC population at the level observed in the non-tumor-bearing mice (FIGS. 4A-4B). […] Treatment with dapansutrile prevented the tumor-induced effect on M-MDSCs expansion, normalizing the population to the non-tumor-bearing mice level (FIGS. 4D-4F).

HUVEC = assay: Angiogenesis assay (HUVEC) with melanoma conditioned media from 1205Lu cells; assay type: cell-based, human; conditions: MCM from 1205Lu cells treated with OLT1177 vs MCM, 5 hours on Matrigel; FIG. 2C
Procedure: Cell culture. 1205Lu human melanoma cells were cultured in RPMI. Each was supplemented with 10% FBS, 100 units/mL penicillin, 0.1 mg/ml streptomycin. Cells were maintained in a humidified 5% CO2 atmosphere at 37 C. Human metastatic melanoma cell line 1205Lu were plated in RPMI at 2.5×10^5 per well in a 24-wells plate and allowed to adhere overnight. The following day, media was replaced with fresh RPMI 10% FBS with or without OLT1177® (dapansutrile). For the induction of cytokine production IL-1α (20 ng/ml) was used. OLT1177® was added 30 minutes prior to stimulation. Supernatants were collected, in both unstimulated and stimulated conditions at 24 hours.
Angiogenesis assay (HUVEC). HUVEC cells were seeded on media with no growth factors overnight. Cells were plated onto Matrigel (Corning) coated wells at 8×10^4 cells per well in a 24 well plate. Cells were then incubated for 5 hours in the presence of HUVEC complete media (control), MCM or MCM in which 1205Lu cells were treated with OLT1177®. MCM was added without dilution. Media was then removed and matrigel was preserved in PFA4%. Pictures were taking at 40× and branching points were counted using the cross method.
The effects of dapansutrile on angiogenesis was determined in vitro using human umbilical vein endothelial cells (HUVEC). […]

B16F10-GFP cells = assay: Metastasis model: i.v. B16F10-GFP cells, GFP+ cell counts in lung and liver; assay type: in vivo, mice; conditions: 21 days after i.v. B16F10-GFP, OLT1177 diet vs standard diet
Procedure: Metastasis Model. Metastasis formation was determined following tail intravenous (i.v.) injection of B16F10-GFP (1×10^6) cells in mice fed standard or OLT1177® diet. Before injection, the B16F10-GFP+ cells were sorted by flow cytometry and only the top brightest 10% cells were injected. Mice were sacrificed after 21 days from the cell injection and lung and liver were isolated and prepared for histology. Previous isolation, lungs were inflated with a solution containing 0.5% low melting agarose to avoid the tissue from collapsing. The presence of GFP-positive cell in the lung and liver of tumor bearing mice were performed by fluorescent microscopy. Tissue sections were stained with Alexa Fluor conjugated WGA, for membranes detection and DAPI, for nuclear stain. Images were acquired blindly and randomly across the tissue sections to obtain 7-10 images per tissue section. GFP positive cells were counted in each image and the results reported as number of GFP+ cells/field area (full chip field).
To determine whether dapansutrile reduces tissue invasion and metastasis, B16F10-GFP labeled cells were injected intravenously in mice fed with standard or OLT1177® diets.

B16F10 cells = assay: B16F10 melanoma Matrigel plug tumor growth in mice fed standard or OLT1177 diet; assay type: in vivo; conditions: OLT1177 diet 7.5 g/kg food (approx. 100 mg/kg/day) vs standard diet, 15 days after plug instillation; FIG. 1A
Procedure: as §2

IL-6 = assay: Plasma IL-6 in B16F10 tumor-bearing mice; assay type: in vivo; conditions: OLT1177 diet vs standard diet, day 15, FIG. 1B
Procedure: as §1, §2

[2] = tested on: Von Willebrand Factor stained endothelial cells; assay: Tumor angiogenesis model: Von Willebrand Factor staining of B16F10 Matrigel plugs; assay type: in vivo, mice; conditions: 7 days after implantation, OLT1177 diet vs standard diet; FIG. 2B
Procedure: (§4) Tumor Angiogenesis Model. A mixture of Matrigel and B16F10 (2×10^5) was inoculated s.c. in the interscapular area of mice fed standard or OLT1177® diet. Following 7 days from the implantation, the plugs were removed, fixed in 4% paraformaldehyde, embedded in paraffin and sectioned (4 μm). Following, the sections were de-paraffinized, hydrated and stained with hematoxylin/eosin. Separate sections were subjected to heat-induced antigen retrieval (10 mM Citrate 0.05% Tween 20-pH 6.0) at 95° C. for 15 min. The sections were then placed in a humidified slide chamber, blocked for 1 h in 10% normal donkey serum (Jackson Immunologicals) and immunostained using an antibody for Von Willebrand factor (1:100, Millipore-Sigma, Burlington, MA) overnight at 4° C. for identification of new vessel formation. Anti-rabbit horseradish peroxidase enzyme (HRP) conjugated antibody (1:100, Jackson ImmunoResearch Laboratories, West Grove, PA) were used as secondary antibody for 2 hours at room temperature. Sections were then incubated for 5-10 min with HRP substrate as directed by the manufacturer's instructions (NovaRED substrate, Vector Laboratories, Burlingame, CA). Nuclei counterstaining were achieved using Mayer's Hematoxylin counterstaining (Thermo Fisher scientific Waltham, MA). […]

VEGF = assay: Plasma VEGF in tumor-bearing mice (tumor angiogenesis model); assay type: in vivo; conditions: 7 days after plug, OLT1177 diet vs standard diet, FIG. 2A
Procedure: as §4, with “temperature.” for “temperature. Sections were then incubated for 5-10 min with HRP substrate as directed by the manufacturer's instructions (NovaRED substrate, Vector Laboratories, Burlingame, CA). Nuclei counterstaining were achieved using Mayer's Hematoxylin counterstaining (Thermo Fisher scientific Waltham, MA).”
We next determined the ability of dapansutrile on inhibition of angiogenesis, an acquired ability of tumor cells to sustain a blood supply to nourish the growing tumor mass. […] After seven days to allow endothelial cell infiltration, plugs were removed, and plasma VEGF levels were determined.

IL-17 = assay: Intracellular cytokine staining for IL-17 in spleen-derived T cells of tumor-bearing mice; assay type: in vivo; conditions: OLT1177 diet vs standard diet, FIG. 1E
Procedure: as §2

IL-22 = assay: Intracellular cytokine staining for IL-22 in spleen-derived T cells of tumor-bearing mice; assay type: in vivo; conditions: OLT1177 diet vs standard diet, FIG. 1D
Procedure: as §2

[3] = healthy subjects, reference 9; cited from earlier work
NLRP3 inflammasome = NLRP3 inflammasome (Homo sapiens, UniProt Q96P20); conditions: reference 9; cited from earlier work
[4] = tested on: M-MDSC (CD11b+Ly6G−Ly6Chi); assay: Flow cytometry of M-MDSC in tumor-bearing mice; assay type: in vivo; conditions: tumor-bearing mice on dapansutrile diet, relative to non-tumor-bearing mice
Source text: as §3

Chain of NLRP3 inflammasome (Q96P20 whole entry): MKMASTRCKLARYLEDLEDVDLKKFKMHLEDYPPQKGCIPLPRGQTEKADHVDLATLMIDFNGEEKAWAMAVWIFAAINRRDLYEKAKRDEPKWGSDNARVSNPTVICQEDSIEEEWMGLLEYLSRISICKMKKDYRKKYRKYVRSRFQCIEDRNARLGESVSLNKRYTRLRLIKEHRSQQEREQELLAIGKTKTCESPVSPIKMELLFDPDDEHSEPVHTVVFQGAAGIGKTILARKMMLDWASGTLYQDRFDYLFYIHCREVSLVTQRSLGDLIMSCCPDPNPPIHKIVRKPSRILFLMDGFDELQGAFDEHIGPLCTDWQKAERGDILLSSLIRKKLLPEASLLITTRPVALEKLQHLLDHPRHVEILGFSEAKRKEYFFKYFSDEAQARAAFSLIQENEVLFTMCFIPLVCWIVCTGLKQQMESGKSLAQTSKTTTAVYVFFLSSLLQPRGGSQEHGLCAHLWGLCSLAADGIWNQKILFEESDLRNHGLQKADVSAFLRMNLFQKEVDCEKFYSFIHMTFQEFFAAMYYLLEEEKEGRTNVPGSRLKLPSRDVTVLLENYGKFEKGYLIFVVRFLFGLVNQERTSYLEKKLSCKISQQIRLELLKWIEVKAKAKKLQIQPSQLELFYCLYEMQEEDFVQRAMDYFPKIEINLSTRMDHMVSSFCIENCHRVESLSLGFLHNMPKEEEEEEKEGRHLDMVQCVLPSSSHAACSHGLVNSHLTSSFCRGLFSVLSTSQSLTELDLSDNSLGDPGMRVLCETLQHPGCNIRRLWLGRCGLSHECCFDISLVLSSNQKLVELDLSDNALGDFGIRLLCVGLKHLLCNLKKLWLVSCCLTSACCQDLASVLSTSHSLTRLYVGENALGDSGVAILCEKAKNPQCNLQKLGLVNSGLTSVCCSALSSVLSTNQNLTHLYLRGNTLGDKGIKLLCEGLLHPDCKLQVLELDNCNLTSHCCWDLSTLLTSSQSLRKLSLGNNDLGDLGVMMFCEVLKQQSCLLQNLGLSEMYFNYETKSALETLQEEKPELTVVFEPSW

CS(=O)(=O)CCC#N [OLT1177®, 3-methanesulfonyl-propionitrile]
plasma levels of G-CSF (G-CSF): significantly reduced | PMN-MDSCs in lymph nodes ([1]; dapansutrile diet vs standard diet, FIG. 4C): reduction | PMN-MDSC population in bone marrow ([1]; tumor-bearing mice on dapansutrile diet, relative to non-tumor-bearing mice, FIG. 4A): restoration | PMN-MDSC population in spleen ([1]; tumor-bearing mice on dapansutrile diet, relative to non-tumor-bearing mice, FIG. 4B): restoration | HUVEC orientation (number of branching points / tubular-like structures) (HUVEC): significantly reduced | reduction of number of GFP+ cells in the lungs (B16F10-GFP cells; p<0.0001, FIG. 3A): 66% | change in number of GFP+ cells in the liver (B16F10-GFP cells; p<0.001, FIG. 3B): −60% | tumor volume (B16F10 cells): reduced | plasma levels of IL-6 (IL-6): significantly reduced | VWF stained endothelial cells in matrigel plugs (new vessel formation) [2]: reduced | circulating VEGF levels (VEGF): significantly lower | IL-17 (ICCS, spleen-derived T cells) (IL-17): No changes | IL-22 levels (ICCS, spleen-derived T cells) (IL-22): reduced | safety when orally administered [3]: safe | inhibition of the NLRP3 inflammasome (NLRP3 inflammasome): selectively inhibit | M-MDSC population in bone marrow ([4]; FIG. 4D): normalizing | M-MDSC population in spleen ([4]; FIG. 4E): normalizing | M-MDSC population in lymph nodes ([4]; FIG. 4F): normalizing
